According to ChEMBL document CHEMBL1201862, “PubChem BioAssay data set” (2004):
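All cell lines were grown in 96-well plates and treated with compound for 48 hours. GI50 = concentration required for 50% inhibition of growth.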 Activity calls are given as the source filed them. Cut-off read from the data, not from the text of the source: active = GI50 up to about 1.1 µM and inactive = higher.

Columns and labels:
Assay in all cases: NCI tumour cell line growth inhibition, 48 h
[1] = tested on: XF498
[2] = tested on: DLD-1
[3] = tested on: OVCAR-3
[4] = tested on: HCT-15
[5] = tested on: SF-268
[6] = tested on: HOP-92
[7] = tested on: SK-MEL-2
[8] = tested on: COLO 205
[9] = tested on: HCC 2998
[10] = tested on: NCI-H522
[11] = tested on: M19-MEL
[12] = tested on: RXF 631
[13] = tested on: LOX IMVI
[14] = tested on: EKVX
[15] = tested on: U-251
[16] = tested on: DMS-273
[17] = tested on: UACC-257
[18] = tested on: NCI-H460
[19] = tested on: KM-20L2
[20] = tested on: HT-29
[21] = tested on: SW-620
[22] = tested on: OVCAR-4
[23] = tested on: SNB-19
[24] = tested on: A498
[25] = tested on: SF-295
[26] = tested on: HOP-18
[27] = tested on: NCI-H23
[28] = tested on: SK-MEL-5
[29] = tested on: ACHN
[30] = tested on: TK-10
[31] = tested on: A549
[32] = tested on: NCI-H226
[33] = tested on: RPMI-8226
[34] = tested on: MOLT-4
[35] = tested on: KM12
[36] = tested on: SK-MEL-28
[37] = tested on: UO-31
[38] = tested on: CCRF-CEM
[39] = tested on: OVCAR-5
[40] = tested on: CAKI-1
[41] = tested on: 786-0
[42] = tested on: Malme-3M
[43] = tested on: UACC-62
[44] = tested on: SK-OV-3
[45] = tested on: K562
[46] = tested on: HL-60
[47] = tested on: SF-539
[48] = tested on: DMS-114
[49] = tested on: LXFL 529
[50] = tested on: HOP-62
[51] = tested on: IGROV-1
[52] = tested on: SNB-78
[53] = tested on: M14

S=P1(c2ccccc2)Nc2ccc(Cl)cc2N1 (stereo not drawn)
GI50 [1]: > 100 µM (inactive)
GI50 [2]: > 100 µM (inactive)
GI50 [3]: > 100 µM (inactive)
GI50 [4]: 58.5 µM
GI50 [5]: > 100 µM (inactive)
GI50 [6]: 20.2 µM (inactive)
GI50 [7]: > 100 µM (inactive)
GI50 [8]: 19.9 µM (inactive)
GI50 [9]: > 100 µM (inactive)
GI50 [10]: 36.5 µM (inactive)
GI50 [11]: 14.2 µM (inactive)
GI50 [12]: 85.7 µM (inactive)
GI50 [13]: > 100 µM (inactive)
GI50 [14]: > 100 µM (inactive)
GI50 [15]: > 100 µM (inactive)
GI50 [16]: > 100 µM (inactive)
GI50 [17]: > 100 µM (inactive)
GI50 [18]: > 100 µM (inactive)
GI50 [19]: > 100 µM (inactive)
GI50 [20]: > 100 µM (inactive)
GI50 [21]: > 100 µM (inactive)
GI50 [22]: 6.49 µM (inactive)
GI50 [23]: > 100 µM (inactive)
GI50 [24]: > 100 µM (inactive)
GI50 [25]: > 100 µM (inactive)
GI50 [26]: > 100 µM (inactive)
GI50 [27]: > 100 µM (inactive)
GI50 [28]: > 100 µM (inactive)
GI50 [29]: 89.1 µM (inactive)
GI50 [30]: > 100 µM (inactive)
GI50 [31]: > 100 µM (inactive)
GI50 [32]: > 100 µM (inactive)
GI50 [33]: 4.68 µM (inactive)
GI50 [34]: 20 µM (inactive)
GI50 [35]: 88.9 µM (inactive)
GI50 [36]: > 100 µM (inactive)
GI50 [37]: 56.4 µM (inactive)
GI50 [38]: 4.45 µM (inactive)
GI50 [39]: > 100 µM (inactive)
GI50 [40]: 32.6 µM (inactive)
GI50 [41]: > 100 µM (inactive)
GI50 [42]: > 100 µM (inactive)
GI50 [43]: 8.09 µM (inactive)
GI50 [44]: 37.5 µM (inactive)
GI50 [45]: 49.3 µM (inactive)
GI50 [46]: 7.48 µM (inactive)
GI50 [47]: > 100 µM (inactive)
GI50 [48]: 26.6 µM (inactive)
GI50 [49]: 17.6 µM (inactive)
GI50 [50]: > 100 µM (inactive)
GI50 [51]: 35.5 µM (inactive)
GI50 [52]: 23.5 µM (inactive)
GI50 [53]: 18.5 µM (inactive)
